pIC50: −log10 of the molar value. Like-named read-outs stand apart in the source and are kept apart here.
Columns and labels:
human HDAC2 = human HDAC2 (Homo sapiens (Human), UniProt Q92769); assay: HDAC2 inhibition assay (modified FLUOR DE LYS, 384-well); type: biochemical; details: […] nM enzyme, 40 μM substrate BML-KI104, 3 h pre-incubation; read-out: HDAC2 IC50
human HDAC8 = human HDAC8 (Homo sapiens (Human), UniProt Q9BY41); assay: HDAC8 inhibition assay (modified FLUOR DE LYS, 384-well); type: biochemical; details: […] nM enzyme, 200 μM substrate BML-KI178, 3 h pre-incubation; read-out: HDAC8 IC50
KARN cells (Jurkat 2C4) = assay: cells; details: Homo sapiens
human HDAC1 = human HDAC1 (Homo sapiens (Human), UniProt Q13547); assay: biochemical
[1] = target: human HDAC3/SMRT heterodimer (Homo sapiens (Human), UniProt O15379); assay: biochemical
HDAC6 = HDAC6 (Homo sapiens (Human), UniProt Q9UBN7); assay: biochemical
[2] = read-out: Karn EC50 nM 0.1% NHS, 0.1% normal human serum, luciferase induction, 2 μM SAHA = 100%
[3] = read-out: Karn EC50 nM 5% NHS, 5% normal human serum, luciferase induction, 2 μM SAHA = 100%

human HDAC2, sequence (Q92769 whole entry): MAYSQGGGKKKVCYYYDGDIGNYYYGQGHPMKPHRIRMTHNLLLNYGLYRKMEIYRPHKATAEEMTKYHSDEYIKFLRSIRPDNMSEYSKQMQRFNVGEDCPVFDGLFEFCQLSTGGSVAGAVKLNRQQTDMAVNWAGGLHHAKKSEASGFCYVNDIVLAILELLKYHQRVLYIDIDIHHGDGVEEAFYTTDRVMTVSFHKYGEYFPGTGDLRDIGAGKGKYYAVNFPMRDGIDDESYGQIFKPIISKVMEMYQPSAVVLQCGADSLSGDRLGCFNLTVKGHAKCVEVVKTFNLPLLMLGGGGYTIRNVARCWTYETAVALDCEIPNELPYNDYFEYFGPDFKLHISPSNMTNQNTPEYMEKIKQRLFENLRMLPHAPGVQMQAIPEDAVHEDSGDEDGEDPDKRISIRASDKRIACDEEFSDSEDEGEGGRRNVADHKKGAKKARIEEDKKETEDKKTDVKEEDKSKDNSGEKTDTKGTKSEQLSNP
human HDAC8, sequence (Q9BY41 whole entry): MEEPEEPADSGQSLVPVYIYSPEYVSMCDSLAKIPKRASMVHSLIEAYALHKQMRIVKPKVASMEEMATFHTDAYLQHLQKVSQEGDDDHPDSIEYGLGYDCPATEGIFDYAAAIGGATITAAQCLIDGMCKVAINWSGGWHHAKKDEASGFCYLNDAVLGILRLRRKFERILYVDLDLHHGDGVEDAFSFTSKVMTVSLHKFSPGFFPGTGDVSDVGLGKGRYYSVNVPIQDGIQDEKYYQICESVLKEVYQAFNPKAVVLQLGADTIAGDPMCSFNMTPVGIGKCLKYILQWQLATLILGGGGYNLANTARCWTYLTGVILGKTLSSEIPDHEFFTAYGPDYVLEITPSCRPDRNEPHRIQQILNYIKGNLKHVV
HDAC6, sequence (Q9UBN7 whole entry): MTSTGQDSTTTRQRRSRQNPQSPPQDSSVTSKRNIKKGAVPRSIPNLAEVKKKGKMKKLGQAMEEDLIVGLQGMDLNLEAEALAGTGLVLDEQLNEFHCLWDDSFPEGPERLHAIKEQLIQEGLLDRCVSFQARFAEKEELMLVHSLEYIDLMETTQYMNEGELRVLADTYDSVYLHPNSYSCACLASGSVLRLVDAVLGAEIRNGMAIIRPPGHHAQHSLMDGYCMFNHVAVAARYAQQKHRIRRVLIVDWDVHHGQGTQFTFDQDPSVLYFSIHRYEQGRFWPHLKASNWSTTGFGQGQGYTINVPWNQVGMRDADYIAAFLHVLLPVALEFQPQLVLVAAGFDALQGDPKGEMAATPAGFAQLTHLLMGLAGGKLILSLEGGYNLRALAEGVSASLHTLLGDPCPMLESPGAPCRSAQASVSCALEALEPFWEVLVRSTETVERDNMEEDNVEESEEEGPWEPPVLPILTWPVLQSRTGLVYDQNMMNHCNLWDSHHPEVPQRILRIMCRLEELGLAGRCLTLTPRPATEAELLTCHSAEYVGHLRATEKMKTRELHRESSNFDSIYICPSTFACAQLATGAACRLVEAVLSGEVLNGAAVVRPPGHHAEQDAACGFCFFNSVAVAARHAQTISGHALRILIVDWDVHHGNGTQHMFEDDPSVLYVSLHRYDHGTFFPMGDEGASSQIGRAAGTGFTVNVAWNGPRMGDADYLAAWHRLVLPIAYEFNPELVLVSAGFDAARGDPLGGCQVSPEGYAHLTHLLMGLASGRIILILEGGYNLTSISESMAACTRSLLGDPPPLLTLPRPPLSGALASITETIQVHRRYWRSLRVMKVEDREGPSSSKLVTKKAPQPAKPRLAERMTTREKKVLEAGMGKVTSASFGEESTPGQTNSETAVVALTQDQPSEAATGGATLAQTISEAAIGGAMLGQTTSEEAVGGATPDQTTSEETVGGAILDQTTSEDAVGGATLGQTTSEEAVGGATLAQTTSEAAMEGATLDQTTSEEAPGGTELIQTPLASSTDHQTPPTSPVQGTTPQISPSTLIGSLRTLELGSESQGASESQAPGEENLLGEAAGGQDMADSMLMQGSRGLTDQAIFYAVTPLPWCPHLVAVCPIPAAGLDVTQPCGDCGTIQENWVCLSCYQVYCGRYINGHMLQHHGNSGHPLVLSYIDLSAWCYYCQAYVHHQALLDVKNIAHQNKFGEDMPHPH
human HDAC3/SMRT heterodimer, sequence (O15379 whole entry): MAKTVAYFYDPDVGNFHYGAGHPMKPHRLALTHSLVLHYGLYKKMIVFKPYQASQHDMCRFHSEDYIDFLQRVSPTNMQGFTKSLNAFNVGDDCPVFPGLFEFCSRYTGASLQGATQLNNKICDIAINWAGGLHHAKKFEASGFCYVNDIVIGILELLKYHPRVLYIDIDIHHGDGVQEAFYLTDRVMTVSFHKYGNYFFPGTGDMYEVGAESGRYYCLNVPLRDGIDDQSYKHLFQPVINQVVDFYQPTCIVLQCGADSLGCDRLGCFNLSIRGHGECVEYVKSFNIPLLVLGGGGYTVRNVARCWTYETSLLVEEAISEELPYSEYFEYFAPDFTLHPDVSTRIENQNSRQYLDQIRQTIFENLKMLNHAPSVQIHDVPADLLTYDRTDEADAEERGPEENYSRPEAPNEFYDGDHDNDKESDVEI
human HDAC3/SMRT heterodimer, sequence (Q9Y618 1-899 partner): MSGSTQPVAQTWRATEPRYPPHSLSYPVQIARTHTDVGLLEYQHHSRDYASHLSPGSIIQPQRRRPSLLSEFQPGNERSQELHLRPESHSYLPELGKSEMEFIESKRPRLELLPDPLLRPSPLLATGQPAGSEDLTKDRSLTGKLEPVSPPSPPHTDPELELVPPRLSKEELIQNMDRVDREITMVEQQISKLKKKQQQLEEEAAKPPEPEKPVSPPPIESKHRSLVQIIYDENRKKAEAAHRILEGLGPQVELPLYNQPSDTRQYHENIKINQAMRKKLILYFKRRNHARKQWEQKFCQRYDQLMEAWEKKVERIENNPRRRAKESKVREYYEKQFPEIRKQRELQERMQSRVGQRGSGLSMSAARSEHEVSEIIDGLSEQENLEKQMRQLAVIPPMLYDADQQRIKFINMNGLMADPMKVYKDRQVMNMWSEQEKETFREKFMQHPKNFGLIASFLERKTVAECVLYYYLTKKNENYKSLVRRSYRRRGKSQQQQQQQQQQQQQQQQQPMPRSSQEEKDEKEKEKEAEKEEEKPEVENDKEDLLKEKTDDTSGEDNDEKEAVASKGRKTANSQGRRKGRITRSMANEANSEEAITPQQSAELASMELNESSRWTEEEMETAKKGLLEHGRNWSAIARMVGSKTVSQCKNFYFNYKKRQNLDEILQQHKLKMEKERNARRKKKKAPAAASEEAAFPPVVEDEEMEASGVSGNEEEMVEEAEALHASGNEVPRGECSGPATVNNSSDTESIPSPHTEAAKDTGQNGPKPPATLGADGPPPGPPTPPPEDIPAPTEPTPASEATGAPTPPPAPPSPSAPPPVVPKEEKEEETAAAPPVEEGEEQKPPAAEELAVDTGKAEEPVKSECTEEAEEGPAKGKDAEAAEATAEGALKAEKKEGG
human HDAC1, sequence (Q13547 whole entry): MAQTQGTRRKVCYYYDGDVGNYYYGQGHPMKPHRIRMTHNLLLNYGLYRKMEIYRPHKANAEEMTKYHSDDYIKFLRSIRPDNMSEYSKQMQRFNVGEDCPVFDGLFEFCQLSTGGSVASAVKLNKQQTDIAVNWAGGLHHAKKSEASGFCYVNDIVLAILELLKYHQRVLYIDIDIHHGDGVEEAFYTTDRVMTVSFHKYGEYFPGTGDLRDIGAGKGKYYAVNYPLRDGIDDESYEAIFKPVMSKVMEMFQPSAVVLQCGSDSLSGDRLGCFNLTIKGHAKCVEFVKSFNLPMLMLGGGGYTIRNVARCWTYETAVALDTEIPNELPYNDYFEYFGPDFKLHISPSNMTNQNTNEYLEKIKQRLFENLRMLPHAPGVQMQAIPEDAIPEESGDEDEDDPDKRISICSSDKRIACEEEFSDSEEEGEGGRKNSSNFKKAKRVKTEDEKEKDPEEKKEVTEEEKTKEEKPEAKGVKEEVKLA

SMILES | IC50 (human HDAC2) [nM] | IC50 (human HDAC8) [nM] | EC50 (KARN cells (Jurkat 2C4); [2]) [nM] | EC50 (KARN cells (Jurkat 2C4); [3]) [nM] | pIC50 (human HDAC1) | pIC50 [1] | pIC50 (HDAC6) | EC50 (KARN cells (Jurkat 2C4); read-out: Karn EC50 nM 0.1% NHS) [nM] | EC50 (KARN cells (Jurkat 2C4); read-out: Karn EC50 nM 5% NHS) [nM]
Cc1ccc2cc(-c3cn(C)c([C@@H](N)CCCCCC(=O)c4ncco4)n3)ccc2n1 [Example 29, (S)-7-amino-7-(1-methyl-4-(2-methylquinolin-6-yl)-1H-imidazol-2-yl)-1-(oxazol-2-yl)heptan-1-one] | 63 | 20000 | 1800 | 1800 | 7.82 | 7.74 | 5.29 |  | 
CN(C)CC(=O)N[C@@H](CCCCCC(=O)c1ncco1)c1ncc(-c2ccc3nccnc3c2)[nH]1 [Example 95, (S)-2-(dimethylamino)-N-(7-(oxazol-2-yl)-7-oxo-1-(5-(quinoxalin-6-yl)-1H-imidazol-2-yl)heptyl)acetamide] | 8.6 | 68 | 63 | 84 | 8.89 | 8.66 | 6.15 |  | 
COc1nc2ccccc2cc1-c1cnc(CCCCCCC(=O)c2ncco2)[nH]1 [Example 73, 7-(5-(2-methoxyquinolin-3-yl)-1H-imidazol-2-yl)-1-(oxazol-2-yl)heptan-1-one] | 16 | 3900 | 840 | 15 | 8.48 | 8.38 | 5.60 |  | 
Cc1ccc2cc(-c3cnc([C@H](CCCCCC(=O)c4ncco4)N4CCOCC4)[nH]3)ccc2n1 [Example 83, (S)-7-(5-(2-methylquinolin-6-yl)-1H-imidazol-2-yl)-7-morpholino-1-(oxazol-2-yl)heptan-1-one] | 62 | 12000 | 3400 | 4200 | 7.85 | 7.51 | ≤ 4.35 |  | 
COc1ncccc1-c1cnc([C@@H](N)CCCCCC(=O)c2ncco2)o1 [Example 28, (S)-7-amino-7-(5-(2-methoxypyridin-3-yl)oxazol-2-yl)-1-(oxazol-2-yl)heptan-1-one] | 32 | > 900 | 1900 | 2000 | 8.05 | 8.03 | 6.18 |  | 
N[C@@H](CCCCCC(=O)c1ncco1)c1ncc(-c2ccc3ncccc3c2)[nH]1 [Example 16, (S)-7-amino-1-(oxazol-2-yl)-7-(5-(quinolin-6-yl)-1H-imidazol-2-yl)heptan-1-one] | 8.8 | 1400 | 120 | 170 | 8.57 | 8.59 | 4.48 |  | 
COc1cc2nc(C)ccc2cc1-c1cnc([C@H](CCCCCC(=O)c2ncco2)NC(=O)C2CCN(C)CC2)[nH]1 [Example 98, (S)-N-(1-(5-(7-methoxy-2-methylquinolin-6-yl)-1H-imidazol-2-yl)-7-(oxazol-2-yl)-7-oxoheptyl)-1-methylpiperidine-4-carboxamide] | 3.6 | 25 |  |  | 9.47 | 9.19 | 6.00 | 58 | 170
O=C1CC[C@](CCCCCC(=O)c2ncco2)(c2ncc(-c3ccc(F)cc3)[nH]2)N1 [Example 65, (R)-5-(5-(4-fluorophenyl)-1H-imidazol-2-yl)-5-(6-(oxazol-2-yl)-6-oxohexyl)pyrrolidin-2-one] | 11 | 3100 | 470 | 630 | 8.66 | 8.66 | ≤ 4.35 |  | 
CCN1CCC2(CC1)C[C@@H]2C(=O)N[C@@H](CCCCCC(=O)c1ncco1)c1[nH]c(-c2ccc(F)cc2)nc1Cl [Example 97, (S)-N-((S)-1-(4-chloro-2-(4-fluorophenyl)-1H-imidazol-5-yl)-7-(oxazol-2-yl)-7-oxoheptyl)-6-ethyl-6-azaspiro[2.5]octane-1-carboxamide] | 0.38 | 210 | 4.1 | 11 | 10.31 | 10.18 | 4.72 |  | 
COc1cc2nc(C)ccc2cc1-c1c[nH]c([C@@H](N)CCCCCC(=O)c2ccon2)n1 [Example 31, (S)-7-amino-1-(isoxazol-3-yl)-7-(4-(7-methoxy-2-methylquinolin-6-yl)-1H-imidazol-2-yl)heptan-1-one] | 4.3 | 100 | 18 | 26 | 8.85 | 8.74 | 4.66 |  | 
CN1CC(C(=O)N[C@@H](CCCCCC(=O)c2ccon2)c2[nH]c(-c3ccccc3F)nc2Cl)C1 [Example 105, (S)-N-(1-(4-chloro-2-(2-fluorophenyl)-1H-imidazol-5-yl)-7-(isoxazol-3-yl)-7-oxoheptyl)-1-methylazetidine-3-carboxamide] | 0.37 | 29 | 2.8 | 3.5 | 9.92 | 10.34 | 5.07 |  | 
N[C@@H](CCCCCC(=O)c1ncco1)c1[nH]c(-c2ccc(F)cc2)nc1Cl [Example 25, (S)-7-amino-7-(4-chloro-2-(4-fluorophenyl)-1H-imidazol-5-yl)-1-(oxazol-2-yl)heptan-1-one] | 5 | 6300 | 340 | 650 | 9.18 | 9.42 | ≤ 4.35 |  | 
CN1CC(C(=O)N[C@@H](CCCCCC(=O)c2ncco2)c2[nH]c(-c3ccc(F)cc3)nc2Cl)C1 [Example 101, (S)-N-(1-(4-chloro-2-(4-fluorophenyl)-1H-imidazol-5-yl)-7-(oxazol-2-yl)-7-oxoheptyl)-1-methylazetidine-3-carboxamide] | 1.5 | 340 | 27 | 22 | 8.82 | 8.82 | ≤ 4.35 |  | 
COc1ncccc1-c1c[nH]c([C@]2(CCCCCC(=O)c3ccon3)CCCC(=O)N2)n1 [Example 71, (S)-6-(6-(isoxazol-3-yl)-6-oxohexyl)-6-(4-(2-methoxypyridin-3-yl)-1H-imidazol-2-yl)piperidin-2-one] | 6.1 | 690 | 330 | 490 | 8.92 | 8.74 | < 6.05 |  | 
Cc1ccc2cc(-c3cnc(C(N)CCCCCC(=O)c4ncco4)o3)ccc2n1 (stereo not drawn) [Example 26, 7-amino-7-(5-(2-methylquinolin-6-yl)oxazol-2-yl)-1-(oxazol-2-yl)heptan-1-one] | 35 | 8000 | 6200 | 6900 | 7.96 | 7.89 | ≤ 4.35 |  | 
CCN1CCC2(CC1)C[C@@H]2C(=O)N[C@@H](CCCCCC(=O)c1ccon1)c1cc(-c2cc3ccc(C)nc3cc2OC)on1 [Example 145, (S)-6-ethyl-N-((S)-7-(isoxazol-3-yl)-1-(5-(7-methoxy-2-methylquinolin-6-yl)isoxazol-3-yl)-7-oxoheptyl)-6-azaspiro[2.5]octane-1-carboxamide] | 14 | 5.1 | 49 | 66 | 8.47 | 8.38 | < 6.05 |  | 
Cc1ccc2cc(-c3cnc([C@H](CCCCCC(=O)c4ncco4)NC(=O)C4=NOC5(CCN(C)CC5)C4)o3)ccc2n1 [Example 116, (S)-8-methyl-N-(1-(5-(2-methylquinolin-6-yl)oxazol-2-yl)-7-(oxazol-2-yl)-7-oxoheptyl)-1-oxa-2,8-diazaspiro[4.5]dec-2-ene-3-carboxamide] | 9.7 | 250 | 95 | 120 | 8.32 | 8.82 | 5.39 |  | 
CN(C)CC(=O)N[C@@H](CCCCCC(=O)c1ccon1)c1nc(Cl)c(-c2ccc(F)cc2)[nH]1 [Example 194, (S)-N-(1-(4-chloro-5-(4-fluorophenyl)-1H-imidazol-2-yl)-7-(isoxazol-3-yl)-7-oxoheptyl)-2-(dimethylamino)acetamide] | 0.69 | 19 | 3.2 | 15 | 9.70 | 10.00 | 5.02 |  | 
COc1ncccc1-c1c[nH]c([C@@H](N)CCCCCC(=O)c2ccon2)n1 [Example 33, (S)-7-amino-1-(isoxazol-3-yl)-7-(4-(2-methoxypyridin-3-yl)-1H-imidazol-2-yl)heptan-1-one] | 4.3 | 110 | 61 | 84 | 9.14 | 9.08 | ≤ 4.35 |  | 
CCn1ccc2cc(-c3cnc([C@H](CCCCCC(=O)c4ccon4)NC(=O)CN(C)C)[nH]3)c(OC)cc2c1=O [Example 94, (S)-2-(dimethylamino)-N-(1-(5-(2-ethyl-7-methoxy-1-oxo-1,2-dihydroisoquinolin-6-yl)-1H-imidazol-2-yl)-7-(isoxazol-3-yl)-7-oxoheptyl)acetamide] | 1 | 5.2 | 3.8 | 8.8 | 9.59 | 9.62 | 4.70 |  | 
COc1nc(C2CC2)ccc1-c1c[nH]c([C@@H](N)CCCCCC(=O)c2ncco2)n1 [Example 24, (S)-7-amino-7-(4-(6-cyclopropyl-2-methoxypyridin-3-yl)-1H-imidazol-2-yl)-1-(oxazol-2-yl)heptan-1-one] | 39 | 3200 | 1400 | 2000 | 8.15 | 8.46 | ≤ 4.35 |  | 

— US12331044B2, “Inhibitors of histone deacetylase useful for the treatment or prevention of HIV infection” (Merck Sharp & Dohme LLC, priority 2018, dated 2025)
